Assay results from US8362031B2, “Lonidamine analogues and treatment of polycystic kidney disease” (University of Kansas, priority 2004, dated 2013).

System: Salmonella Typhimurium TA 100
Assay: Ames test for mutagenicity (plate assay, colony count)
Settings: 48 hours at 37° C.; for Ames test (+)S9 0.1 mg/pl. / Ames test (+)S9 1 mg/pl. / Ames test (+)S9 10 mg/pl.: (+)S9 mix; for Ames test (−)S9 0.1 mg/pl. / Ames test (−)S9 1 mg/pl. / Ames test (−)S9 10 mg/pl.: (−)S9 mix

| Compound | Ames test (+)S9 0.1 mg/pl. | Ames test (+)S9 1 mg/pl. | Ames test (+)S9 10 mg/pl. | Ames test (−)S9 0.1 mg/pl. | Ames test (−)S9 1 mg/pl. | Ames test (−)S9 10 mg/pl. |
| --- | --- | --- | --- | --- | --- | --- |
| NNC(=O)c1nn(Cc2ccc(Cl)cc2Cl)c2cc(Cl)ccc12 [DD-MC-II, 6-chloro-1-(2,4-dichlorobenzyl)-1H-indazole-3-carboxylic acid hydrazide] | Pass | Pass | Pass | Pass | Pass | Pass |
| NNC(=O)c1nn(Cc2ccc(Cl)cc2Cl)c2cccnc12 [JWS-1-112, 1-(2,4-dichlorobenzyl)-1H-pyrazolo[4,3-b]pyridine-3-carboxylic acid hydrazide] | Pass | Pass | Pass | Pass | Fail | Fail |
| O=C(O)c1nn(Cc2ccc(Cl)cc2Cl)c2cnccc12 [JWS-1-132, 1-(2,4-dichlorobenzyl)-1H-pyrazolo[3,4-c]pyridine-3-carboxylic acid] | Pass | Pass | Pass | Pass | Pass | Pass |
| COC(=O)c1nn(Cc2ccc(Cl)cc2Cl)c2cc(C(F)(F)F)cnc12 [JWS-1-228, 1-(2,4-dichlorobenzyl)-6-trifluoromethyl-1H-pyrazolo[4,3-b]pyridine-3-carboxylic acid methyl ester] | Pass | Pass | Pass | Pass | Pass | Pass |
| O=C(O)c1nn(Cc2ccc(Cl)cc2Cl)c2cc(C(F)(F)F)cnc12 [JWS-1-230, 1-(2,4-dichlorobenzyl)-6-trifluoromethyl-1H-pyrazolo[4,3-b]pyridine-3-carboxylic acid] | Pass | Pass | Pass | Pass | Pass | Pass |
| NNC(=O)c1nn(Cc2ccc(Cl)cc2Cl)c2cc(C(F)(F)F)cnc12 [JWS-1-232, 1-(2,4-dichlorobenzyl)-6-trifluoromethyl-1H-pyrazolo[4,3-b]pyridine-3-carboxylic acid hydrazide] | Pass | Pass | Pass | Pass | Pass | Pass |
| NNC(=O)c1nn(Cc2ccc(Cl)cc2Cl)c2ccc(C(F)(F)F)cc12 [JWS-1-258, 1-(2,4-dichlorobenzyl)-5-trifluoromethyl-1H-indazole-3-carboxylic acid hydrazide] | Pass | Pass | Pass | Pass | Pass | Pass |
| O=C(O)c1nn(Cc2ccc(Cl)cc2Cl)c2ccc(C(F)(F)F)cc12 [JWS-1-260, 1-(2,4-dichlorobenzyl)-5-trifluoromethyl-1H-indazole-3-carboxylic acid] | Pass | Pass | Pass | Pass | Pass | Pass |
| O=C(O)/C=C/c1nn(Cc2ccc(Cl)cc2Cl)c2ccc(C(F)(F)F)cc12 [JWS-1-268, 3-[1-(2,4-dichlorobenzyl)-5-trifluoromethyl-1H-indazol-3-yl]-acrylic acid] | Pass | Pass | Pass | Pass | Pass | Pass |
| O=C(O)c1nn(Cc2ccc(F)cc2F)c2cc(Cl)ccc12 [JWS-1-284, 1-(2,4-difluorobenzyl)-6-chloro-1H-indazole-3-carboxylic acid] | Pass | Fail | Fail | Pass | Fail | Fail |
| O=C(O)/C=C/c1nn(Cc2ccc(F)cc2F)c2cc(C(F)(F)F)ccc12 [JWS-1-294, 3-[1-(2,4-difluorobenzyl)-6-trifluoromethyl-1H-indazol-3-yl]-acrylic acid] | Pass | Pass | Pass | Pass | Pass | Pass |
| O=C(O)/C=C/c1nn(Cc2ccc(F)cc2F)c2cc(Cl)ccc12 [JWS-1-298, 3-[1-(2,4-difluorobenzyl)-6-chloro-1H-indazol-3-yl]-acrylic acid] | Pass | Fail | Fail | Pass | Fail | Fail |
| COC(=O)c1nn(Cc2ccc(F)cc2F)c2ccc(C(F)(F)F)cc12 [JWS-1-300, 1-(2,4-difluorobenzyl)-5-trifluoromethyl-1H-indazole-3-carboxylic acid methyl ester] | Pass | Fail | Fail | Pass | Fail | Fail |
| NNC(=O)c1nn(Cc2ccc(F)cc2F)c2ccc(C(F)(F)F)cc12 [JWS-1-302, 1-(2,4-difluorobenzyl)-5-trifluoromethyl-1H-indazole-3-carboxylic acid hydrazide] | Pass | Pass | Fail | Pass | Pass | Pass |
| O=C(O)c1nn(Cc2ccc(F)cc2F)c2ccc(C(F)(F)F)cc12 [JWS-2-1, 1-(2,4-difluorobenzyl)-5-trifluoromethyl-1H-indazole-3-carboxylic acid] | Pass | Pass | Pass | Pass | Mar- | Fail |
| O=C(O)/C=C/c1nn(Cc2ccc(F)cc2F)c2ccc(C(F)(F)F)cc12 [JWS-2-10, 3-[1-(2,4-difluorobenzyl)-5-trifluoromethyl-1H-indazol-3-yl]-acrylic acid] | Pass | Pass | Pass | Pass | Pass | Pass |
| O=C(O)c1nn(Cc2ccc(F)cc2Cl)c2cc(C(F)(F)F)ccc12 [JWS-2-14, 1-(2-chloro-4-fluorobenzyl)-6-trifluoromethyl-1H-indazole-3-carboxylic acid] | Pass | Pass | Fail | Pass | Fail | Fail |
